Values after ≈ are worked out from the molar mass of the structure shown. A value given as a limit tells only on which side of the number the result lay.

By EC50 is commonly meant the concentration at which the effect is half-maximal. Read a high EC50 as a less potent agent.

Common to all, as to format: functional, cell-based
One test deals with SK-OV-3. The test can be described thus: Cytotoxicity against human SKOV3 cells.
The test system of the next test is HCT-15. As to the kind of experiment: Cytotoxicity against human HCT15 cells.
For a further test, the system named is A549. As to the kind of experiment: Cytotoxicity against human A549 cells.
For a further test, the system named is SK-MEL-2. The test can be described thus: Cytotoxicity against human SK-MEL-2 cells.
The subject of another test is XF498. The test can be described thus: Cytotoxicity against human XF498 cells.

`O=C1NCCSSCCNC(=O)/C(=N/O)Cc2ccc(c(Br)c2)Oc2cc(cc(Br)c2O)C/C(=N\O)C(=O)NCCSSCCNC(=O)/C(=N/O)Cc2cc(Br)c(O)c(c2)Oc2ccc(cc2Br)C/C1=N\O` [CYCLOBISPSAMMAPLIN A]: the concentration giving a half-maximal response (EC50) was found to be 1.21 µg/mL (≈ 0.913 µM) in the test on SK-OV-3; 3.82 µg/mL (≈ 2.88 µM) in the test with HCT-15; 1.95 µg/mL (≈ 1.47 µM) in the test with A549; 1.14 µg/mL (≈ 0.861 µM) in the test with SK-MEL-2; 2.88 µg/mL (≈ 2.17 µM) with XF498.

Regarding `COc1cccc2c1C(=O)c1c(O)c3c(c(O)c1C2=O)C[C@@](O)(C(=O)CO)C[C@@H]3O[C@H]1C[C@H](N)[C@H](O)[C@H](C)O1` [DOXORUBICIN], the EC50 turned out to be 0.01 µg/mL (≈ 0.0184 µM) with SK-OV-3; 0.03 µg/mL (≈ 0.0552 µM) in the test with HCT-15; 0.01 µg/mL (≈ 0.0184 µM) in the test on A549; 0.01 µg/mL (≈ 0.0184 µM) with SK-MEL-2; 0.03 µg/mL (≈ 0.0552 µM) in the test with XF498.

`CN(C)C(=N)N.CN(C)C(=N)N.O=C(NCCSSCCNC(=O)/C(Cc1ccc(OS(=O)(=O)O)c(Br)c1)=N/O)/C(Cc1ccc(OS(=O)(=O)O)c(Br)c1)=N/O` [PSAMMAPLIN A SULFATE DIGUANIDIUM SALT]: the EC50 in the test with SK-OV-3 came to 1.79 µg/mL; with HCT-15 it was 43.2 µg/mL; with A549, 12.3 µg/mL; in the test with SK-MEL-2 it was 4.48 µg/mL; in the test with XF498, 16.9 µg/mL.

Consider `O=C(NCCSSCCNC(=O)/C(Cc1ccc(O)c(Br)c1)=N/O)/C(Cc1ccc(OS(=O)(=O)[O-])c(Br)c1)=N\O.[Na+]` [PSAMMAPLIN A SULFATE SODIUM SALT], for which the EC50 was 0.16 µg/mL in the test on SK-OV-3; 1.25 µg/mL with HCT-15; 0.18 µg/mL in the test with A549; 1.13 µg/mL in the test on SK-MEL-2; 0.18 µg/mL in the test with XF498.

On to `N#CSCCNC(=O)/C(Cc1ccc(O)c(Br)c1)=N/O` [PSAMMAPLIN B], for which the EC50 with SK-OV-3 is 9.27 µg/mL (≈ 25.9 µM); in the test with HCT-15 it was above 30 µg/mL; in the test with A549, 12.8 µg/mL (≈ 35.8 µM); in the test on SK-MEL-2, 19.4 µg/mL (≈ 54.2 µM); in the test with XF498, 10.9 µg/mL (≈ 30.5 µM).

Consider `NC(=O)C(=O)NCCSSCCNC(=O)/C(Cc1ccc(O)c(Br)c1)=N/O` [PSAMMAPLIN E], for which the concentration for a half-maximal effect (EC50) was 0.19 µg/mL (≈ 0.396 µM) in the test on SK-OV-3; 1.92 µg/mL (≈ 4.01 µM) in the test on HCT-15; 1.47 µg/mL (≈ 3.07 µM) with A549; 0.21 µg/mL (≈ 0.438 µM) in the test on SK-MEL-2; 1.63 µg/mL (≈ 3.4 µM) in the test with XF498.

For `CS(=O)(=O)CCNC(=O)/C(Cc1ccc(O)c(Br)c1)=N/O` [PSAMMAPLIN I], the EC50 turned out to be 1.76 µg/mL (≈ 4.64 µM) in the test with SK-OV-3; 6.51 µg/mL (≈ 17.2 µM) in the test on HCT-15; 4.15 µg/mL (≈ 10.9 µM) in the test on A549; 2.84 µg/mL (≈ 7.49 µM) with SK-MEL-2; 2.96 µg/mL (≈ 7.81 µM) in the test with XF498.

`COC(=O)CCNC(=O)/C(Cc1ccc(O)c(Br)c1)=N/O` [PSAMMAPLIN M]: the EC50 in the test on SK-OV-3, in the test with HCT-15, in the test on A549, in the test with SK-MEL-2 and with XF498 was above 30 µg/mL throughout.

Values taken from ChEMBL document CHEMBL1141012, “Cytotoxic bromotyrosine derivatives from a two-sponge association of Jaspis sp. and Poecillastra sp” (Bioorg Med Chem Lett, 2008).
